Results reported in patent US20060116368A1, “4-Piperidinecarboxamide modulators of vanilloid VR1 receptor” (priority 2004, published 2006).

Legend:
hVR1 receptors = target: T1, hVR1 receptors (Homo sapiens, UniProt Q8NER1); assay: Human VR1 binding assay ([3H]RTX); conditions: membranes of HEK293 cells transfected with human VR1; for Ki: [3H]RTX binding; for h Binding % I (1 uM): inhibition of [3H]RTX binding
T1 construct: expressed in transfected cells; host or cells: HEK293
Experimental: Compounds of the present invention were tested for their ability to inhibit the binding of [^3H] RTX to hVR1 receptors in a [^3H] RTX binding assay as previously described (Zhang, Sui-Po. Improved ligand binding assays for vanilloid receptors. PCT Int. Appl. (2002), WO 0233411 A1 20020425 AN 2002:315209, and Grant, Elfrida R., Dubin, Adrienne E., Zhang, Sui-Po, Zivin, Robert A., Zhong, Zhong Simultaneous intracellular calcium and sodium flux imaging in human vanilloid receptor 1 (VR1)-transfected human embryonic kidney cells: a method to resolve ionic dependence of VR1-mediated cell death. J. Pharmacol. Exp. Ther., 2002, 300(1), 9-17.)
HEK293 cells were transfected with human VR1 vanilloid receptors and washed with Hank's balanced Salt Solution, dissociated with cell dissociation buffer (Sigma), and then centrifuged at 1000×g for 5 min. Cell pellets were homogenized in cold 20 mM HEPES buffer, pH 7.4, containing 5.8 mM NaCl, 320 mM sucrose, 2 mM MgCl2, 0.75 CaCl2 and 5 mM KCl and centrifuged at 1000×g for 15 min. The resultant supernate was then centrifuged at 40000×g for 15 min. The pelleted membranes were stored in a freezer at −80° C.
Approximately 120 μg protein/ml from membranes were incubated with indicated concentrations of [^3H]RTX in 0.5 ml of the HEPES buffer (pH 7.4) containing 0.25 mg/mL fatty acid-free bovine serum albumin at 37° C. for 60 min. The reaction mixture was then cooled to 4° C., added 0.1 mg α1-acid glycoprotein to each sample and incubated at 4° C. for 15 min. The samples were centrifuged at 18500×g for 15 min. The tip of the microcentrifuge tube containing the pellet was cut off. Bound radioactivity was quantified by scintillation counting. Non-specific binding was tested in the presence of 200 nM unlabeled RTX.
Data were calculated according to the equation: % inhibition=(total binding−binding)*100/(total binding−non specific binding). Ki values were calculated using a Prism program.

[1] = target: T2, Human Vanilloid Receptor 1 (Homo sapiens, UniProt Q8NER1); assay: Human VR1 functional assay using FLIPR, Protocol 1; type: cell-based; conditions: for inhibition at 9 µM: HEK293, 9 uM, HEK 293 cells transfected with hVR1, read-out: h % I (9 uM); for IC50: decreased capsaicin (EC80)-induced calcium response, HEK 293 hVR1, read-out: h IC50
T2 construct: expressed in transfected cells; host or cells: HEK 293
T2 sequence (Q8NER1 whole entry): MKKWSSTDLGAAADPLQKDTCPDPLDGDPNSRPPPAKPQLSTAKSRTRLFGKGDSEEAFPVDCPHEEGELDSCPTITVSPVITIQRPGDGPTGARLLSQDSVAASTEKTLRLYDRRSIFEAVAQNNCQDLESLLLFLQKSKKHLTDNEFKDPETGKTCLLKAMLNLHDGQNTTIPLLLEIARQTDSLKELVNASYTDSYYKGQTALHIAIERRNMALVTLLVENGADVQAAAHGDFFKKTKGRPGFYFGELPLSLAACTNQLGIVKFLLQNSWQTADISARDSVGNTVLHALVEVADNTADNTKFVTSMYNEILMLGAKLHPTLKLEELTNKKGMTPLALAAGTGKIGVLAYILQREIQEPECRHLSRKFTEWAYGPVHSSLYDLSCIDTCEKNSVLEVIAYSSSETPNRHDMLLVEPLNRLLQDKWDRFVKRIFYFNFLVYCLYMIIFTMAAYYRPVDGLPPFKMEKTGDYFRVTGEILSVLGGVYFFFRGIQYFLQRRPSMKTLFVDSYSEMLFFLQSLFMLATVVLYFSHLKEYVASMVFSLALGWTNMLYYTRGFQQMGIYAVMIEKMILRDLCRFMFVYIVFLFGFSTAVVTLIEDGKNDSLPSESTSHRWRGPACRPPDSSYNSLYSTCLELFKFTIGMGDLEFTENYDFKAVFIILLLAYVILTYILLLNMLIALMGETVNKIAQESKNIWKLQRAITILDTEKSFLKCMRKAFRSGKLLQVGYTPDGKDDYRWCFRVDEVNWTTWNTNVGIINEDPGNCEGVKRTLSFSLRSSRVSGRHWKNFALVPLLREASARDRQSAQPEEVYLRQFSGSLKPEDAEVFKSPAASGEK
Experimental: The functional activity of the test compounds was determined by measuring changes in intracellular calcium concentration using FLIPR™ Calcium-3 Assay Kit and FLIPR™ technology.
HEK 293 cells transfected with Human Vanilloid Receptor 1 were maintained at 37° C. and 5% CO2 in: Dulbecco's Modification of Eagle's Medium (high glucose, L-glutamine, pyridoxine HCl, No sodium pyruvate), 10% FBS, 1× Penicillin-Streptomycin-Amphotericin B, 200 ug/mL zeocin. Approximately 24 hours prior to assay, 30,000 cells/well were plated onto a 384-well black clear bottom poly-D-lysine-coated assay plate with a well volume of 25 µL using Titertek Multidrop.
On the day of the assay, the medium was dumped and 50 μL 1× dye were loaded using Multidrop. Plates were incubated with dye at 37° C. for 30 minutes followed by 30 minutes incubation at room temperature. Then the plates were assayed by FLIPR™ with 2 additions: 12.5 μL test compound with 5 minutes data acquisition followed by 12.5 μL capsaicin at the EC80 concentration.
The EC50 values of test compounds were calculated based on a test compound-induced calcium response at the 5-minute time point. The IC50 values of compounds were calculated based on a decreased capsaicin-induced calcium response in the presence of test compound.

[2] = inhibition of capsaicin (EC80)-induced calcium response

T1 sequence (Q8NER1 whole entry): as above

| Ki (hVR1 receptors) [nM] | inhibition at 9 µM [1, 2] [%] | IC50 [1] [nM] | h Binding % I (1 uM) (hVR1 receptors) [%] | h % I (9 uM) ([1]; 9 uM, inhibition of capsaicin (EC80)-induced calcium response, HEK 293 cells transfected with hVR1) [%] | SMILES |
| --- | --- | --- | --- | --- | --- |
| 27 | 99.5 | 60 |  |  | Cc1cccc(N2CCC(C(=O)Nc3ccc4c(c3)NC(=O)CO4)CC2)c1C [Example 145, 1-(2,3-Dimethyl-phenyl)-piperidine-4-carboxylic acid (3-oxo-3,4-dihydro-2H-benzo[1,4]oxazin-6-yl)-amide] |
| 56 | 89 | 850 |  |  | O=C1COc2ccc(NC(=O)C3CCN(c4ccc(F)c(F)c4)CC3)cc2N1 [Example 155, 1-(3,4-Difluoro-phenyl)-piperidine-4-carboxylic acid (3-oxo-3,4-dihydro-2H-benzo[1,4]oxazin-6-yl)-amide] |
| 125 | 96.3 | 150 |  |  | CCc1ccccc1N1CCC(C(=O)Nc2ccc3c(c2)NC(=O)CO3)CC1 [Example 142, 1-(2-Ethyl-phenyl)-piperidine-4-carboxylic acid (3-oxo-3,4-dihydro-2H-benzo[1,4]oxazin-6-yl)-amide] |
| 225 | 84 | 490 |  |  | Cc1cccc(N2CCC(C(=O)Nc3ccc4c(c3)NC(=O)CO4)CC2)c1 [Example 140, 1-m-Tolyl-piperidine-4-carboxylic acid (3-oxo-3,4-dihydro-2H-benzo[1,4]oxazin-6-yl)-amide] |
| 1470 | 62.3 | 670 |  |  | O=C1COc2ccc(NC(=O)C3CCN(c4ccccc4F)CC3)cc2N1 [Example 151, 1-(2-Fluoro-phenyl)-piperidine-4-carboxylic acid (3-oxo-3,4-dihydro-2H-benzo[1,4]oxazin-6-yl)-amide] |
| 78 | 101 | 180 |  |  | CC(C)c1ccccc1N1CCC(C(=O)Nc2ccc3c(c2)NC(=O)CO3)CC1 [Example 143, 1-(2-Isopropyl-phenyl)-piperidine-4-carboxylic acid (3-oxo-3,4-dihydro-2H-benzo[1,4]oxazin-6-yl)-amide] |
| 71 | 91.7 | 160 |  |  | O=C1COc2ccc(NC(=O)C3CCN(c4ccccc4Br)CC3)cc2N1 [Example 153, 1-(2-Bromo-phenyl)-piperidine-4-carboxylic acid (3-oxo-3,4-dihydro-2H-benzo[1,4]oxazin-6-yl)-amide] |
| 93 | 90.7 | 220 |  |  | O=C1COc2ccc(NC(=O)C3CCN(c4ccccc4Cl)CC3)cc2N1 [Example 152, 1-(2-Chloro-phenyl)-piperidine-4-carboxylic acid (3-oxo-3,4-dihydro-2H-benzo[1,4]oxazin-6-yl)-amide] |
| 84 | 90 | 520 |  |  | O=C1COc2ccc(NC(=O)C3CCN(c4cccc(F)c4)CC3)cc2N1 [Example 147, 1-(3-Fluoro-phenyl)-piperidine-4-carboxylic acid (3-oxo-3,4-dihydro-2H-benzo[1,4]oxazin-6-yl)-amide] |
| 61 | 100 | 150 |  |  | Cc1ccccc1N1CCC(C(=O)Nc2ccc3c(c2)NC(=O)CO3)CC1 [Example 141, 1-o-Tolyl-piperidine-4-carboxylic acid (3-oxo-3,4-dihydro-2H-benzo[1,4]oxazin-6-yl)-amide] |

Second part, the compound before the results:

| SMILES | Ki (hVR1 receptors) [nM] | inhibition at 9 µM [1, 2] [%] | IC50 [1] [nM] | h Binding % I (1 uM) (hVR1 receptors) [%] | h % I (9 uM) ([1]; 9 uM, inhibition of capsaicin (EC80)-induced calcium response, HEK 293 cells transfected with hVR1) [%] |
| --- | --- | --- | --- | --- | --- |
| O=C(Nc1ccc2ncsc2c1)C1CCN(c2cccc(C(F)(F)F)c2)CC1 [Example 13, 1-(3-Trifluoromethyl-phenyl)-piperidine-4-carboxylic acid benzothiazol-6-ylamide] |  | 88 | 480 | 47.7 |  |
| CC(=O)N1CCc2cccc(NC(=O)C3CCN(c4cccc(C(F)(F)F)c4)CC3)c21 [Example 9, 1-(3-Trifluoromethyl-phenyl)-piperidine-4-carboxylic acid (1-acetyl-2,3-dihydro-1H-indol-7-yl)-amide] |  | 48.5 | 5610 | 4.8 |  |
| O=C1COc2ccc(NC(=O)C3CCN(c4cccc(Cl)c4)CC3)cc2N1 [Example 148, 1-(3-Chloro-phenyl)-piperidine-4-carboxylic acid (3-oxo-3,4-dihydro-2H-benzo[1,4]oxazin-6-yl)-amide] | 34 | 88.7 | 190 |  |  |
| Cc1ccc(N2CCC(C(=O)Nc3ccc4c(c3)NC(=O)CO4)CC2)cc1C [Example 144, 1-(3,4-Dimethyl-phenyl)-piperidine-4-carboxylic acid (3-oxo-3,4-dihydro-2H-benzo[1,4]oxazin-6-yl)-amide] | 314 | 77 | 380 |  |  |
| O=C1COc2ccc(NC(=O)C3CCN(c4cccc(C(F)(F)F)c4)CC3)cc2N1 [Example 34, 1-(3-Trifluoromethyl-phenyl)-piperidine-4-carboxylic acid (3-oxo-3,4-dihydro-2H-benzo[1,4]oxazin-6-yl)-amide] | 65 | 94.5 | 210 |  |  |
| O=C1COc2ccc(NC(=O)C3CCN(c4cc(F)cc(F)c4)CC3)cc2N1 [Example 154, 1-(3,5-Difluoro-phenyl)-piperidine-4-carboxylic acid (3-oxo-3,4-dihydro-2H-benzo[1,4]oxazin-6-yl)-amide] | 137 | 96 | 370 |  |  |
| O=C(Nc1cccc2[nH]ccc12)C1CCN(c2cccc(C(F)(F)F)c2)CC1 [Example 21, 1-(3-Trifluoromethyl-phenyl)-piperidine-4-carboxylic acid (1H-indol-4-yl)-amide] | 134 |  | 160 | 86.9 | 102.0 |
| O=C(Nc1cccc2[nH]ccc12)C1CCN(c2cccc(C(F)(F)F)c2)CC1 [Example 8, 1-(3-Trifluoromethyl-phenyl)-piperidine-4-carboxylic acid (1H-indol-4-yl)-amide] | 134 | 101 | 230 | 87.0 |  |
| CC(=O)c1cc2c(cc1NC(=O)C1CCN(c3cccc(C(F)(F)F)c3)CC1)OCO2 [Example 33, 1-(3-Trifluoromethyl-phenyl)-piperidine-4-carboxylic acid (6-acetyl-benzo[1,3]dioxol-5-yl)-amide] |  | 12.6 |  | 12.8 |  |
| Cc1ccc(N2CCC(C(=O)Nc3cnc4ccccc4c3)CC2)cc1C [Example 6, 1-(3,4-Dimethyl-phenyl)-piperidine-4-carboxylic acid quinolin-3-ylamide] | 215 | 92.2 | 350 | 66.5 |  |
| O=C(Nc1cnc2ccccc2c1)C1CCN(c2ccccc2Br)CC1 [Example 53, 1-(2-Bromo-phenyl)-piperidine-4-carboxylic acid quinolin-3-ylamide] |  | 104 | 160 | 47.3 |  |
| CC(=O)N1CCc2ccc(NC(=O)C3CCN(c4cccc(C(F)(F)F)c4)CC3)cc21 [Example 16, 1-(3-Trifluoromethyl-phenyl)-piperidine-4-carboxylic acid (1-acetyl-2,3-dihydro-1H-indol-6-yl)-amide] |  | 83 | 800 | 15.0 |  |
| CC(C)(C)c1ccc(N2CCC(C(=O)Nc3ccc4c(c3)NC(=O)CO4)CC2)cc1 [Example 146, 1-(4-tert-Butyl-phenyl)-piperidine-4-carboxylic acid (3-oxo-3,4-dihydro-2H-benzo[1,4]oxazin-6-yl)-amide] | 132 | 112 | 90 |  |  |
